Measurements published in patent publication EP0326134A1, “4-Amino-2,3-disubstituted-6,7-dihydro-5H-1-pyridine derivatives, process for their preparation and medicaments containing them” (NAUCHNO-ISSLEDOVATELSKY INSTITUT TEKHNOLOGII I BEZOPASNOSTI …, priority 1988, dated 1989).
Where two headings read alike, the source gives them in different places.

Key:
[1] = test system: Nerven-Muskel-Präparat von Mäusen (n.peroneus-m.extensor digitorum longus); test: Neuromuscular transmission in isolated nerve-muscle preparation (EPP, minEPP); details: for Stimulierung der Nerven-Muskelübertragung, in % der Amplitude: EPP: EPP = Endplattenpotential
From the text: Der Einfluß der Stoffe auf die Nerven-Muskei-Übertragung wurde am isolierten Nerven-Muskel-Präparat von Mäusen (n.peroneus-m.extensor digitorum longus) (s. Bhattacharyya B. et al. "Neuromuscular blocking action of two hemicholinium-3 analogs" Europ. J. Pharmac. 146, 155-165 /1988/) untersucht, das von Lilly-Lösung perfundiert wurde, durch die man ein Gemisch von 02 und C02 leitete. […] Das Endplattenpotential (EPP) und das Endplattenminiaturpotential (minEPP) wurden mit Hilfe eines Magnetografen aufgezeichnet und danach mit dem Computer ausgewertet. Ermittelt wurden die Frequenz (f), die Amplitude (A) und die Dauer (t) der minEPP und der EPP (s. Tabelle 2).

[2] = test system: durch Skopolamin hervorgerufene Amnesie; test: Dark avoidance assay (passive avoidance), scopolamine-induced amnesia; type: in vivo, Mäusen; details: for Einfluß auf das Gedächtnis: Zahl der Tiere in %, bei denen die Skopolaminwirkung aufgehoben wurde: mice, compound s.c. 5 min before learning, Skopolamin i.p. 30 min before
Protocol: Die Mäuse wurden dabei in den hellen Abschnitt der Kammer gegeben, wonach die Latenzzeit für den Übertritt in die dunkle Kammer, in der die Tiere einem Stromschlag von 0,5 mA ausgesetzt waren, registriert wurde. Danach erhöhte sich die Latenzzeit für den Übertritt in den dunklen Abschnitt und verringerte sich die Aufenthaltsdauer. 30 Minuten vor dem Versuch wurden den Mäusen i.p. […] Gedächtnisstörungen hervorrufendes Skopolamin als Cholinblocker injiziert. Die erfindungsgemäßen Verbindungen wurden s.c. 5 Minuten vor dem Lernvorgang injiziert. Das Skopolamin verkürzt die Latenzzeit für den Übertritt in die dunkle Kammer, die erfindungsgemäßen Verbindungen stellen jedoch die Latenzzeitwerte wie bei der Kontrollgruppe wieder her oder bedingen ein geringfügiges Überschreiten dieser Werte (siehe Tabelle 2). Gleichzeitig wird die Aufenthaltsdauer der Tiere im dunklen Abschnitt der Kammer auf 36 bis 45 Hundertstel des Ausgangswerts verringert.

[3] = test system: Calciumchlorid-Arrhythmie-Modells; test: Calcium chloride arrhythmia model (250 mg/kg): ventricular fibrillation, survival; type: in vivo, Ratten; details: rats, calcium chloride 250 mg/kg
From the text: (§1) Die antiarrhythmische Wirkung der erfindungsgemäßen Verbindungen wurde in zwei Versuchsserien untersucht, und zwar an isolierten Präparaten des rechten Vorhofs von Kaninchen und mit Hilfe des Calciumchlorid-Arrhythmie-Modells an Ratten. In den Versuchen an den isolierten Präparaten des rechten Vorhofs wurden mit Hilfe von Mikroelektroden die Dauer des AP sowie der Refraktärzeit (R) und die maximale Hemmung (e) und der Parameter (e/R) untersucht, durch den die Anfälligkeit des Myokards gegenüber der Entstehung von Arrhythmien gekennzeichnet wird. In den Versuchen an Ratten wurden diesen Calciumchlorid in einer Dosierung von 250 mg/kg injiziert. Registriert wurden das Vorliegen von Kammerflimmern und die Lebensdauer der Tiere. Sämtliche erfindungsgemäßen Verbindungen üben eine mäßige antiarrhythmische Wirkung aus. Sie steigern die Refraktärzeit des Muskels und des AP um 35 bis 145 % und verringern gleichzeitig die Anfälligkeit des Myokards, ausgedrückt durch den Parameter e/R um 10 bis 80 % (s. Tabelle 4). In bezug auf diese Wirkung waren die Salze der bicyclischen Basen wirksamer als Amyridin. Bezüglich des Vermögens, die Tiere vor Kammerflimmern und vor dem Tod nach Verabreichung von 250 mg/kg Calciumchlorid zu schützen, waren diese Verbindungen ebenfalls am stärksten wirksam. Bei Verwendung des Calciumchlorid-Arrhythmie-Modells waren viele erfindungsgemäßen Verbindungen stärker wirksam als das klassische Antiarrhythmikum Chinidin (s. M.D. Ma s kovskij, Lekarstvennye sredstva, Bd. 1, S. 401, Moskau, Medicina, 1984).

[4] = Side effects and CNS/behaviour: tremor (TD50), sedative and m-cholinomimetic effects; type: in vivo
From the text: Von Interesse ist der Einfluß der erfindungsgemäßen Verbindungen auf das ZNS und das Verhalten der Tiere.

[5] = test system: Wirkung von Hexenal; test: Influence on the effect of Hexenal; type: in vivo, Mäusen; details: mice
[6] = Acute toxicity, single intraperitoneal injection, probit analysis (LD50); type: in vivo, Mäusen; details: mice, i.p.
From the text: Ihre akute Toxizität wurde an Mäusen (einmalige intraperitoneale Injektion) nach der Methode der Probit-Analyse nach Zichtfield, Wilcoxon, t949 untersucht. In Tabelle 2 sind die Parameter der akuten Toxizität (LDso) angegeben, die eine mäßige Toxizität der erfindungsgemäßen Verbindungen belegen.

[7] = test system: Orientierungsaktivität; test: Influence on orientation activity; type: in vivo, Mäusen; details: mice
From the text: Von Interesse ist der Einfluß der erfindungsgemäßen Verbindungen auf das ZNS und das Verhalten der Tiere. Alle Verbindungen zeigen eine Kombination von stimulierenden und sedativen Eigenschaften und bei höheren Dosen auch eine m-cholinomimetische Wirkung, wobei Tremor, Speichelfluß und Diarrhoe ausgelöst werden.

[8] = test system: isolierten Präparaten des rechten Vorhofs von Kaninchen; test: Antiarrhythmic effect on isolated right atrium preparations (microelectrodes: AP duration, refractory period R, e/R); details: isolated right atrium of rabbit, microelectrodes
From the text: as §1

[9] = test system: Zahl der Krämpfe; test: Writhing test (intraperitoneal acetic acid); type: in vivo, Mäusen; details: male mice
From the text: Die analgetische Wirkung der erfindungsgemäßen Verbindungen wurde an männlichen Mäusen anhand des "Krampf"-Tests (Writhing-Tests) unter intraperitonealer Injizierung von Essigsäure und des Hot-plate-Tests untersucht. Im ersten Falle wurde die analgetische Wirkung der Verbindungen anhand der prozentualen Verringerung der Zahl der Krämpfe ermittelt. Beim zweiten Test wurde die Schwelle der Schmerzempfindlichkeit (Ablecken der Pfoten) bestimmt. Die stärkste analgetische Wirkung der erfindungsgemäßen Verbindungen zeigte sich beim "Krampf"-Test. Dabei übertrafen die Salze der bicyclischen Basen Amyridin, aber nicht alle erfindungsgemäßen Verbindungen waren schwächer als Morphin (s. Tabelle 4).

[10] = target: T1, Acetylcholinesterase menschlicher Erythrozyten (Homo sapiens, UniProt P22303); test: Acetylcholinesterase inhibition, spectrophotometric; type: biochemical
T1 construct: Acetylcholin-esteraseinhi-bierung bei menschlichen Erythrozyten; from tissue; host or cells: human erythrocytes
T1 sequence (P22303 other isoform, or with tags, fused parts or gaps): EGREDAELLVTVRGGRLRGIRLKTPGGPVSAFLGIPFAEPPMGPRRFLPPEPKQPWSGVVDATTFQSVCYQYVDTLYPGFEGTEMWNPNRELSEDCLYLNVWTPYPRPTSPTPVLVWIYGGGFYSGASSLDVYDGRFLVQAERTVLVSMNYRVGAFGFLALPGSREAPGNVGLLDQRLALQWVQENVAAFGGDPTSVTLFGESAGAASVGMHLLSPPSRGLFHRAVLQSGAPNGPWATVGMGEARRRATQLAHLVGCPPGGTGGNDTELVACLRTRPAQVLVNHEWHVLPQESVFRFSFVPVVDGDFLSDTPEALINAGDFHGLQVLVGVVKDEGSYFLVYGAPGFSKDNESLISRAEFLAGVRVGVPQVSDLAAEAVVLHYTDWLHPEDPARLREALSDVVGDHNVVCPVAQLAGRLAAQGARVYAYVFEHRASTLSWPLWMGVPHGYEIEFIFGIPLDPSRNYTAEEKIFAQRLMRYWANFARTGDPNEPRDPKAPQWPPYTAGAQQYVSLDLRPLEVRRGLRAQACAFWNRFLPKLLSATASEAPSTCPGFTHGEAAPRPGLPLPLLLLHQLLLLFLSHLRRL
From the text: Untersucht wurden die Wirkmechanismen der erfindungsgemäßen Verbindungen: • 1. Die Wirkung auf Acetylcholinesterase menschlicher Erythrozyten auf spektrofotometrischem Wege. • 2.

[11] = ED50 = dose blocking the effect of Skopolamin in 50 % of the animals (passive avoidance, mice)
[12] = toxic dose causing tremor in 50 % of the animals
[13] = Acetylcholinesteraseinhibierung bei menschlichen Erythrozyten IK, (Mol), human erythrocyte enzyme

| SMILES | Stimulierung der Nerven-Muskelübertragung, in % der Amplitude: EPP [1] | Stimulierung der Nerven-Muskelübertragung, in % der Amplitude: minEPP [1] | Einfluß auf das Gedächtnis: Zahl der Tiere in %, bei denen die Skopolaminwirkung aufgehoben wurde [2] | Antiarrhythmische Wirkung: Verlängerung d. Lebensdauer von Ratten an Hand des CaCl2-Arrhythmie-Modells, in % [3] | Verhältnis TD50 zu ED50 [4, 11] | TD50 (Tremor) [4, 12] | Änderung der Dauer der Seitenlage, in %: Hexenal 60 mg/kg [5] | LD50 [6] | Änderung der Orientierungsaktivität, in % [7] | Antiarrhythmische Wirkung: Verlängerung d. Refraktärzeit (R), in % [8] | Analgetische Wirkung: Abnahme d. Zahl der "Krämpfe" bei Mäusen, in % [9] | Ki [10, 13] | antiamnestische Wirkung ([2]; in words, compared with Amyridin) | selectivity ratio ([4]; in vivo, ED50 = dose blocking the effect of Skopolamin in 50 % of the animals (passive avoidance, mice), read-out: Verhältnis TD50 zu ED50) | TD50 ([4]; in vivo, toxic dose causing tremor in 50 % of the animals) | LD50 ([6]; mouse, in vivo, ip, read-out: LD50) | Ki ([10]; read-out: Acetylcholinesteraseinhibierung bei menschlichen Erythrozyten IK, (Mol), human erythrocyte enzyme) |
| --- | --- | --- | --- | --- | --- | --- | --- | --- | --- | --- | --- | --- | --- | --- | --- | --- | --- |
| Cc1nc2c(c(N)c1C)CCC2 [Verbindung 2] | 45% | 85% | 75% | 160% | 12,5 | 5 mg/kg | +35% | 15 mg/kg | -15% | 130% | 70% | 48 nM | – | – | – | – | – |
| Cc1nc2c(c(N)c1-c1ccccc1)CCC2 [Verbindung 32] | 20% | 45% | 50% | – | – | – | – | – | – | – | – | – | ausgenommen | 2.6 | 10 mg/kg | 18 mg/kg | 50000 nM |
| CCc1c(C)nc2c(c1N)CCC2 [Verbindung 22] | 25% | 60% | 70% | – | 4 | 12 mg/kg | – | 32 mg/kg | – | – | – | – | – | – | – | – | – |
| Cc1nc2c(c(N)c1C)CCC2 [Verbindung 3] | 55% | 110% | 80% | 190% | 20 | 7 mg/kg | 0% | 17 mg/kg | -8% | 115% | 90% | 180 nM | – | – | – | – | – |
| Cc1nc2c(c(N)c1C)CCC2 [Verbindung 18] | 45% | 80% | 70% | – | 6 | 9 mg/kg | – | 16 mg/kg | – | – | – | 145 nM | – | – | – | – | – |
